# Reference: patent US11691962B2 (eXIthera Pharmaceuticals, Inc., priority 2018, dated 2023)
# Target: Factor XIa (Homo sapiens (Human), UniProt P03951)
# Experiment: Factor XIa enzyme inhibition assay (dose response, fluorogenic AMC substrate)
# Type: biochemical
# Conditions: read-out: hFXIa IC50
# How it was run: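 Human FXIa at 0.25 nM final with 50 μM final PyroGlu-Pro-Arg-AMC in 20 mM Hepes pH 7.4, 150 mM NaCl, 0.02% Tween 20. Two-fold serial compound dilutions; fluorescence read every minute for 30 min at 30° C. IC50 from a four-parameter Hill fit.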
# Factor XIa, sequence (P03951 388-625): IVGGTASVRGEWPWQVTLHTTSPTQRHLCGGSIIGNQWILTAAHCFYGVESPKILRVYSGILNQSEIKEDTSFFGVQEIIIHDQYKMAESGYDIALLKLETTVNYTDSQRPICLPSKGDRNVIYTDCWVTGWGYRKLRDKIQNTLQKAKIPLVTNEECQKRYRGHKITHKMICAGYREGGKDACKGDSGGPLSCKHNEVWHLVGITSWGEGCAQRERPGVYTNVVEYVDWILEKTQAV
# Factor XIa, sequence (P03951 19-387 partner): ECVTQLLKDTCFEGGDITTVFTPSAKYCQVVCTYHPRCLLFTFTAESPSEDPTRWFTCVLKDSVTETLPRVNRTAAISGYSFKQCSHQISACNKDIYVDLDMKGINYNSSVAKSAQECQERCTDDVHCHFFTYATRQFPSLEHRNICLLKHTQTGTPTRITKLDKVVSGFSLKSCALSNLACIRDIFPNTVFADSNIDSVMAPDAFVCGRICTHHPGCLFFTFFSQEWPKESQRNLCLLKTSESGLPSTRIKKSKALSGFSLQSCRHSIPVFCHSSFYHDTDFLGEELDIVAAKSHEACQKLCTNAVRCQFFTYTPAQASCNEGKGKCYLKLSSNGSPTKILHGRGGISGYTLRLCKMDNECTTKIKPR
row,Structure (SMILES),IC50
1,"CC[C@@H](NC(=O)N1C(=O)[C@H](Cc2ccnc(N)c2)[C@H]1C(=O)N(C)c1nccn1C)C1CCOCC1 [Compound 1-122, (2S,3R)-3-((2-aminopyridin-4-yl)methyl)-N2-(1-methyl-1H-imidazol-2-yl)-N1-((R)-1-(oxan-4-yl)propyl)-N2-methyl-4-oxoazetidine-1,2-dicarboxamide]",10 to 100 nM
2,"CC[C@@H](NC(=O)N1C(=O)[C@H](Cc2cc(C)nc(N)c2)[C@H]1C(=O)N(C)C1=NC(=O)CN1C)c1ccccc1 [Compound 1-139, (2S,3R)-3-((2-amino-6-methylpyridin-4-yl)methyl)-N2-(4-oxo-1-methyl-4,5-dihydro-1H-imidazol-2-yl)-N1-((R)-1-phenylpropyl)-N2-methyl-4-oxoazetidine-1,2-dicarboxamide]",10 to 100 nM
3,"CC[C@@H](NC(=O)N1C(=O)[C@H](Cc2cc(C)nc(N)c2)[C@H]1C(=O)N(C)c1cn(C)cn1)C1CCCCC1 [Compound 1-76, (2S,3R)-3-((2-amino-6-methylpyridin-4-yl)methyl)-N2-(1-methyl-1H-imidazol-4-yl)-N1-((R)-1-cyclohexylpropyl)-N2-methyl-4-oxoazetidine-1,2-dicarboxamide]",10 to 100 nM
4,"CC[C@@H](NC(=O)N1C(=O)[C@H](Cc2ccnc(N)c2)[C@H]1C(=O)N(C)c1ccnn1C)c1ccc(C)c(F)c1 [Compound 1-216, (2S,3R)-3-((2-aminopyridin-4-yl)methyl)-N2-(1-methyl-1H-pyrazol-5-yl)-N1-((R)-1-(3-fluoro-4-methylphenyl)propyl)-N2-methyl-4-oxoazetidine-1,2-dicarboxamide]",< 10 nM
5,"CC[C@@H](NC(=O)N1C(=O)[C@H](Cc2ccnc(NC)c2)[C@H]1C(=O)N(C)c1cccs1)c1ccccc1 [Compound 1-40, (2S,3R)-3-((2-methylaminopyridin-4-yl)methyl)-N2-(thiophen-2-yl)-N1-((R)-1-phenylpropyl)-N2-methyl-4-oxoazetidine-1,2-dicarboxamide]",10 to 100 nM
6,"CC[C@@H](NC(=O)N1C(=O)[C@H](Cc2cc(C)nc(N)c2)[C@H]1C(=O)N(C)c1nccn1C)c1cc(C)ccc1C [Compound 1-108, (2S,3R)-3-((2-amino-6-methylpyridin-4-yl)methyl)-N2-(1-methyl-1H-imidazol-2-yl)-N1-((R)-1-(2,5-dimethylphenyl)propyl)-N2-methyl-4-oxoazetidine-1,2-dicarboxamide]",10 to 100 nM
7,"CC[C@@H](NC(=O)N1C(=O)[C@H](Cc2cc(C)nc(N)c2)[C@H]1C(=O)N(C)c1cnn(C)c1)c1cc(F)cc(F)c1 [Compound 1-189, (2S,3R)-3-((2-amino-6-methylpyridin-4-yl)methyl)-N2-(1-methyl-1H-pyrazol-4-yl)-N1-((R)-1-(3,5-difluorophenyl)propyl)-N2-methyl-4-oxoazetidine-1,2-dicarboxamide]",10 to 100 nM
8,"CC[C@@H](NC(=O)N1C(=O)[C@H](Cc2cc(C)nc(N)c2)[C@H]1C(=O)N(C)c1ccnn1C)c1cc(C)ccc1C [Compound 1-166, (2S,3R)-3-((2-amino-6-methylpyridin-4-yl)methyl)-N2-(1-methyl-1H-pyrazol-5-yl)-N1-((R)-1-(2,5-dimethylphenyl)propyl)-N2-methyl-4-oxoazetidine-1,2-dicarboxamide]",< 10 nM
9,"CC[C@@H](NC(=O)N1C(=O)[C@H](Cc2ccnc(N)c2)[C@H]1C(=O)N(C)C1=NC(=O)CN1C)c1ccccc1 [Compound 1-131, (2S,3R)-3-((2-aminopyridin-4-yl)methyl)-N2-(4-oxo-1-methyl-4,5-dihydro-1H-imidazol-2-yl)-N1-((R)-1-phenylpropyl)-N2-methyl-4-oxoazetidine-1,2-dicarboxamide]",10 to 100 nM
10,"CC[C@@H](NC(=O)N1C(=O)[C@H](Cc2cc(C)nc(N)c2)[C@H]1C(=O)N(C)c1ccn(C)n1)c1ccc(C)c(C)c1 [Compound 1-145, (2S,3R)-3-((2-amino-6-methylpyridin-4-yl)methyl)-N2-(1-methyl-1H-pyrazol-3-yl)-N1-((R)-1-(3,4-dimethylphenyl)propyl)-N2-methyl-4-oxoazetidine-1,2-dicarboxamide]",< 10 nM
11,"CC[C@@H](NC(=O)N1C(=O)[C@H](Cc2cc(C)nc(N)c2)[C@H]1C(=O)N(C)c1cnn(C)c1)c1cccc(C)c1F [Compound 1-190, (2S,3R)-3-((2-amino-6-methylpyridin-4-yl)methyl)-N2-(1-methyl-1H-pyrazol-4-yl)-N1-((R)-1-(2-fluoro-3-methylphenyl)propyl)-N2-methyl-4-oxoazetidine-1,2-dicarboxamide]",< 10 nM
12,"CC[C@@H](NC(=O)N1C(=O)[C@H](Cc2cc(C)nc(N)c2)[C@H]1C(=O)N(C)c1cnn(C)c1)c1cccc(F)c1C [Compound 1-191, (2S,3R)-3-((2-amino-6-methylpyridin-4-yl)methyl)-N2-(1-methyl-1H-pyrazol-4-yl)-N1-((R)-1-(3-fluoro-2-methylphenyl)propyl)-N2-methyl-4-oxoazetidine-1,2-dicarboxamide]",10 to 100 nM
13,"CC[C@@H](NC(=O)N1C(=O)[C@H](Cc2ccnc(N)c2)[C@H]1C(=O)N(C)c1nnco1)c1ccccc1 [Compound 1-167, (2S,3R)-3-((2-aminopyridin-4-yl)methyl)-N2-(1,3,4-oxadiazol-2-yl)-N1-((R)-1-phenylpropyl)-N2-methyl-4-oxoazetidine-1,2-dicarboxamide]",< 10 nM
14,"CC[C@H](NC(=O)N1C(=O)[C@H](Cc2ccnc(N)c2)[C@H]1C(=O)N(C)c1nccn1C)c1ccc(C)nc1C [Compound 1-96, (2S,3R)-3-((2-aminopyridin-4-yl)methyl)-N2-(1-methyl-1H-imidazol-2-yl)-N1-((S)-1-(2,6-dimethylpyridin-3-yl)propyl)-N2-methyl-4-oxoazetidine-1,2-dicarboxamide]",100 to 1000 nM
15,"CC[C@@H](NC(=O)N1C(=O)[C@H](Cc2cc(C)nc(N)c2)[C@H]1C(=O)N(C)C1=NCC(=O)N1C)c1ccccc1 [Compound 1-148, (2S,3R)-3-((2-amino-6-methylpyridin-4-yl)methyl)-N2-(5-oxo-1-methyl-4,5-dihydro-1H-imidazol-2-yl)-N1-((R)-1-phenylpropyl)-N2-methyl-4-oxoazetidine-1,2-dicarboxamide]",100 to 1000 nM
16,"CC[C@@H](NC(=O)N1C(=O)[C@H](Cc2ccnc(N)c2)[C@H]1C(=O)N(C)c1ccnn1C)c1cc(C)c(F)c(C)c1 [Compound 1-205, (2S,3R)-3-((2-aminopyridin-4-yl)methyl)-N2-(1-methyl-1H-pyrazol-5-yl)-N1-((R)-1-(3,5-dimethyl-4-fluorophenyl)propyl)-N2-methyl-4-oxoazetidine-1,2-dicarboxamide]",< 10 nM

# The remaining lines, values ahead:
row,IC50,Structure (SMILES)
1,< 10 nM,"CC[C@@H](NC(=O)N1C(=O)[C@H](Cc2ccnc(N)c2)[C@H]1C(=O)N(C)c1ccn(C)n1)c1cc(Cl)ccc1C [Compound 1-141, (2S,3R)-3-((2-aminopyridin-4-yl)methyl)-N2-(1-methyl-1H-pyrazol-3-yl)-N1-((R)-1-(5-chloro-2-methylphenyl)propyl)-N2-methyl-4-oxoazetidine-1,2-dicarboxamide]"
2,< 10 nM,"CC[C@@H](NC(=O)N1C(=O)[C@H](Cc2ccnc(N)c2)[C@H]1C(=O)N(C)c1ccn(C)n1)c1ccccc1C [Compound 1-130, (2S,3R)-3-((2-aminopyridin-4-yl)methyl)-N2-(1-methyl-1H-pyrazol-3-yl)-N1-((R)-1-(2-methylphenyl)propyl)-N2-methyl-4-oxoazetidine-1,2-dicarboxamide]"
3,10 to 100 nM,"CC[C@H](NC(=O)N1C(=O)[C@H](Cc2ccnc(N)c2)[C@H]1C(=O)N(C)c1nccn1C)c1cccc(F)c1 [Compound 1-220, (2S,3R)-3-((2-aminopyridin-4-yl)methyl)-N2-(1-methyl-1H-imidazol-2-yl)-N1-((S)-1-(3-fluorophenyl)propyl)-N2-methyl-4-oxoazetidine-1,2-dicarboxamide]"
4,< 10 nM,"CC[C@@H](NC(=O)N1C(=O)[C@H](Cc2ccnc(N)c2)[C@H]1C(=O)N(C)c1ccn(C)n1)c1ccc(C)cc1 [Compound 1-124, (2S,3R)-3-((2-aminopyridin-4-yl)methyl)-N2-(1-methyl-1H-pyrazol-3-yl)-N1-((R)-1-(4-methylphenyl)propyl)-N2-methyl-4-oxoazetidine-1,2-dicarboxamide]"
5,100 to 1000 nM,"CC[C@H](NC(=O)N1C(=O)[C@H](Cc2ccnc(N)c2)[C@H]1C(=O)N(C)c1nccn1C)c1cc(F)ccc1F [Compound 1-221, (2S,3R)-3-((2-aminopyridin-4-yl)methyl)-N2-(1-methyl-1H-imidazol-2-yl)-N1-((S)-1-(2,5-difuorophenyl)propyl)-N2-methyl-4-oxoazetidine-1,2-dicarboxamide]"
6,< 10 nM,"CC[C@@H](NC(=O)N1C(=O)[C@H](Cc2ccnc(N)c2)[C@H]1C(=O)N(C)c1ccnn1C)c1cc(F)ccc1C [Compound 1-219, (2S,3R)-3-((2-aminopyridin-4-yl)methyl)-N2-(1-methyl-1H-pyrazol-5-yl)-N1-((R)-1-(5-fluoro-2-methylphenyl)propyl)-N2-methyl-4-oxoazetidine-1,2-dicarboxamide]"
7,100 to 1000 nM,"CN(C(=O)[C@@H]1[C@@H](Cc2ccnc(N)c2)C(=O)N1C(=O)NCc1cccc(F)c1)c1cn(C)cn1 [Compound 1-34, (2S,3R)-3-((2-aminopyridin-4-yl)methyl)-N2-(1-methyl-1H-imidazol-4-yl)-N1-((3-fluorophenyl)methyl)-N2-methyl-4-oxoazetidine-1,2-dicarboxamide]"
8,10 to 100 nM,"CN(C(=O)[C@@H]1[C@@H](Cc2ccnc(N)c2)C(=O)N1C(=O)NCc1cccc(Cl)c1)c1cccs1 [Compound 1-29, (2S,3R)-3-((2-aminopyridin-4-yl)methyl)-N2-(thiophen-2-yl)-N1-((3-chlorophenyl)methyl)-N2-methyl-4-oxoazetidine-1,2-dicarboxamide]"
9,< 10 nM,"CC[C@@H](NC(=O)N1C(=O)[C@H](Cc2ccnc(N)c2)[C@H]1C(=O)N(C)c1ccn(C)n1)c1ccc(C)c(F)c1F [Compound 1-201, (2S,3R)-3-((2-aminopyridin-4-yl)methyl)-N2-(1-methyl-1H-pyrazol-3-yl)-N1-((R)-1-(2,3-difluoro-4-methylphenyl)propyl)-N2-methyl-4-oxoazetidine-1,2-dicarboxamide]"
